Experimental data: PubChem BioAssay (NCI)
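Five compound concentrations were applied to cells in 96-well plates for 48 hours; endpoints were derived by simple linear interpolation of the resulting dose-response curve. Here, GI50 denotes the concentration required for 50% inhibition of growth. TGI: concentration producing complete growth inhibition.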

Tests used:
Experiment in all cases: growth of human tumour cells (NCI), 48 h
[1] = system: 786-0 renal
[2] = system: ACHN renal
[3] = system: A498 renal
[4] = system: SK-MEL-28 melanoma
[5] = system: SF-295 CNS
[6] = system: MOLT-4 leukemia
[7] = system: HS 578T breast
[8] = system: SF-539 CNS
[9] = system: SN12C renal
[10] = system: NCI-H522 lung
[11] = system: DU-145 prostate
[12] = system: SF-268 CNS
[13] = system: OVCAR-8 ovarian
[14] = system: HCC-2998 colon
[15] = system: TK-10 renal
[16] = system: RXF 393 renal
[17] = system: MDA-MB-435
[18] = system: SK-OV-3 ovarian
[19] = system: MDA-MB-231 breast
[20] = system: COLO 205 colon
[21] = system: EKVX NSCLC
[22] = system: RPMI-8226 leukemia
[23] = system: NCI-H23 lung
[24] = system: A549 NSCLC
[25] = system: HOP-62 NSCLC
[26] = system: SK-MEL-2 melanoma
[27] = system: NCI-H226 lung
[28] = system: K-562 leukemia
[29] = system: U251 CNS
[30] = system: M14 melanoma
[31] = system: CAKI-1 renal
[32] = system: UACC-62 melanoma
[33] = system: HT29 colon
[34] = system: T-47D breast
[35] = system: IGROV1 ovarian
[36] = system: BT-549 breast
[37] = system: LOX IMVI melanoma
[38] = system: NCI-H460 lung
[39] = system: HCT-116 colon
[40] = system: MALME-3M melanoma
[41] = system: MCF7 breast
[42] = system: HL-60(TB) leukemia
[43] = system: HOP-92 NSCLC
[44] = system: UO-31 renal
[45] = system: PC-3 prostate
[46] = system: UACC-257 melanoma
[47] = system: SNB-19 CNS
[48] = system: NCI/ADR-RES ovarian
[49] = system: SW-620 colon
[50] = system: HCT-15 colon
[51] = system: OVCAR-4 ovarian
[52] = system: SK-MEL-5 melanoma
[53] = system: OVCAR-5 ovarian
[54] = system: CCRF-CEM leukemia
[55] = system: KM12 colon
[56] = system: SNB-75 CNS
[57] = system: OVCAR-3 ovarian
[58] = system: SR leukemia

SMILES: CS(=O)(=O)Nc1cc(-c2ccc3ncc(C#N)c(Nc4cccc(Cl)c4F)c3c2)cnc1Cl
- GI50 [1]: 366 nM
- TGI [1]: 3550 nM
- GI50 [2]: 591 nM
- TGI [2]: 21200 nM
- GI50 [3]: 93.7 nM
- TGI [3]: 471 nM
- GI50 [4]: 189 nM
- TGI [4]: 2820 nM
- GI50 [5]: 267 nM
- TGI [5]: 3250 nM
- GI50 [6]: 82.3 nM
- TGI [6]: 1580 nM
- GI50 [7]: 56.7 nM
- TGI [7]: 537 nM
- GI50 [8]: 181 nM
- TGI [8]: 2860 nM
- GI50 [9]: 152 nM
- TGI [9]: 39400 nM
- GI50 [10]: 255 nM
- TGI [10]: 2670 nM
- GI50 [11]: 289 nM
- TGI [11]: 5460 nM
- GI50 [12]: 87.6 nM
- TGI [12]: 1810 nM
- GI50 [13]: 369 nM
- TGI [13]: 4230 nM
- GI50 [14]: 507 nM
- TGI [14]: 2190 nM
- GI50 [15]: 84.7 nM
- TGI [15]: 926 nM
- GI50 [16]: 76.8 nM
- TGI [16]: 910 nM
- GI50 [17]: 277 nM
- TGI [17]: 3000 nM
- GI50 [18]: 360 nM
- TGI [18]: 2610 nM
- GI50 [19]: 333 nM
- TGI [19]: 2310 nM
- GI50 [20]: 219 nM
- TGI [20]: 955 nM
- GI50 [21]: 367 nM
- TGI [21]: 2630 nM
- GI50 [22]: 94.7 nM
- TGI [22]: 1170 nM
- GI50 [23]: 158 nM
- TGI [23]: 9360 nM
- GI50 [24]: 763 nM
- TGI [24]: 2840 nM
- GI50 [25]: 198 nM
- TGI [25]: 7800 nM
- GI50 [26]: 29.2 nM
- TGI [26]: 177 nM
- GI50 [27]: 556 nM
- TGI [27]: 11100 nM
- GI50 [28]: 115 nM
- TGI [28]: > 100000 nM
- GI50 [29]: 59.1 nM
- TGI [29]: 1280 nM
- GI50 [30]: 308 nM
- TGI [30]: 3580 nM
- GI50 [31]: 72.9 nM
- TGI [31]: 1590 nM
- GI50 [32]: 120 nM
- TGI [32]: 1580 nM
- GI50 [33]: 329 nM
- TGI [33]: 2320 nM
- GI50 [34]: 101 nM
- TGI [34]: 4790 nM
- GI50 [35]: 101 nM
- TGI [35]: 869 nM
- GI50 [36]: 56 nM
- TGI [36]: 959 nM
- GI50 [37]: 107 nM
- TGI [37]: 641 nM
- GI50 [38]: 391 nM
- TGI [38]: 10900 nM
- GI50 [39]: 66.5 nM
- TGI [39]: 1140 nM
- GI50 [40]: 68.3 nM
- TGI [40]: 708 nM
- GI50 [41]: 64.3 nM
- TGI [41]: 4030 nM
- GI50 [42]: 94 nM
- GI50 [43]: 21.9 nM
- TGI [43]: 348 nM
- GI50 [44]: 205 nM
- TGI [44]: 2920 nM
- GI50 [45]: 260 nM
- TGI [45]: 3600 nM
- GI50 [46]: 400 nM
- TGI [46]: 4540 nM
- GI50 [47]: 288 nM
- TGI [47]: 3110 nM
- GI50 [48]: 1250 nM
- TGI [48]: 20700 nM
- GI50 [49]: 73.3 nM
- TGI [49]: 1820 nM
- GI50 [50]: 111 nM
- TGI [50]: 2870 nM
- GI50 [51]: 495 nM
- TGI [51]: 8090 nM
- GI50 [52]: 49.2 nM
- TGI [52]: 182 nM
- GI50 [53]: 749 nM
- TGI [53]: 3920 nM
- GI50 [54]: 90.6 nM
- TGI [54]: > 39900 nM
- GI50 [55]: 324 nM
- TGI [55]: 2090 nM
- GI50 [56]: < 13.1 nM
- TGI [56]: 395 nM

SMILES: C#CCN(C)CCCOc1ccc(NC(=O)CCCCCCC(=O)NO)cc1Cl
- GI50 [1]: 3520 nM
- TGI [1]: 25700 nM
- GI50 [2]: 2820 nM
- TGI [2]: 12700 nM
- GI50 [3]: 1160 nM
- TGI [3]: 3040 nM
- GI50 [4]: 1440 nM
- TGI [4]: 11300 nM
- GI50 [57]: 1480 nM
- TGI [57]: 13200 nM
- GI50 [5]: 1680 nM
- TGI [5]: 4710 nM
- GI50 [6]: 338 nM
- TGI [6]: > 100000 nM
- GI50 [7]: 1150 nM
- TGI [7]: 7310 nM
- GI50 [8]: 1660 nM
- TGI [8]: 17000 nM
- GI50 [9]: 2780 nM
- TGI [9]: > 100000 nM
- GI50 [10]: 431 nM
- TGI [10]: 8200 nM
- GI50 [11]: 1680 nM
- TGI [11]: > 100000 nM
- GI50 [12]: 2920 nM
- TGI [12]: 16400 nM
- GI50 [13]: 793 nM
- TGI [13]: > 100000 nM
- GI50 [14]: 1470 nM
- TGI [14]: 4230 nM
- GI50 [15]: 1410 nM
- TGI [15]: 11000 nM
- GI50 [16]: 272 nM
- TGI [16]: 1110 nM
- GI50 [17]: 835 nM
- TGI [17]: 5970 nM
- GI50 [18]: 1540 nM
- TGI [18]: 12600 nM
- GI50 [19]: 1830 nM
- TGI [19]: 16400 nM
- GI50 [20]: 648 nM
- TGI [20]: 2450 nM
- GI50 [21]: 3470 nM
- TGI [21]: > 100000 nM
- GI50 [22]: 1050 nM
- TGI [22]: 6780 nM
- GI50 [23]: 2440 nM
- TGI [23]: 18900 nM
- GI50 [24]: 2140 nM
- TGI [24]: 13600 nM
- GI50 [25]: 1850 nM
- TGI [25]: 24000 nM
- GI50 [26]: 3050 nM
- TGI [26]: 21800 nM
- GI50 [27]: 4130 nM
- TGI [27]: 30600 nM
- GI50 [28]: 549 nM
- TGI [28]: > 100000 nM
- GI50 [29]: 1410 nM
- TGI [29]: 7210 nM
- GI50 [31]: 1650 nM
- TGI [31]: 8080 nM
- GI50 [32]: 570 nM
- TGI [32]: 4180 nM
- GI50 [33]: 1420 nM
- TGI [33]: 43000 nM
- GI50 [34]: 608 nM
- TGI [34]: > 100000 nM
- GI50 [35]: 1230 nM
- TGI [35]: 4340 nM
- GI50 [36]: 3480 nM
- TGI [36]: 30000 nM
- TGI [37]: 120 nM
- GI50 [38]: 1100 nM
- TGI [38]: > 100000 nM
- GI50 [39]: 437 nM
- TGI [39]: 6260 nM
- GI50 [40]: 373 nM
- TGI [40]: 28400 nM
- GI50 [41]: 813 nM
- TGI [41]: 17400 nM
- GI50 [42]: 589 nM
- TGI [42]: > 100000 nM
- GI50 [43]: 725 nM
- TGI [43]: 4560 nM
- GI50 [44]: 1500 nM
- TGI [44]: 7040 nM
- GI50 [58]: 530 nM
- TGI [58]: > 100000 nM
- GI50 [45]: 1530 nM
- TGI [45]: > 100000 nM
- GI50 [46]: 587 nM
- TGI [46]: 13400 nM
- GI50 [47]: 2260 nM
- TGI [47]: 17700 nM
- GI50 [48]: 5410 nM
- TGI [48]: > 100000 nM
- GI50 [49]: 698 nM
- TGI [49]: 4310 nM
- GI50 [50]: 5030 nM
- TGI [50]: > 100000 nM
- GI50 [51]: 4410 nM
- TGI [51]: > 100000 nM
- GI50 [52]: 853 nM
- TGI [52]: 2430 nM
- GI50 [53]: 1700 nM
- TGI [53]: 45700 nM
- GI50 [54]: 375 nM
- TGI [54]: > 100000 nM
- GI50 [55]: 1910 nM
- TGI [55]: 15900 nM
- GI50 [56]: 606 nM
- TGI [56]: 32100 nM
